From US10183936B2, “Hepatitis B core protein allosteric modulators” (priority 2014, dated 2019)

Legend:
[1] = system: AD38 cells; assay: Viability of AD38 cells (Promega CellTiter-Glo) at the end of compound treatment; type: cell-based; settings: 10 μM compound, 6 days, luminescence normalized against DMSO control wells (controls being 100%)
Summary of the method: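 AD38 cells seeded at 50,000/well received compound from a 10× solution in 10% DMSO and were incubated 6 days at 37° C. Viability was then read by CellTiter-Glo luminescence in tetracycline-free medium with 2% FBS and 1% DMSO, normalized to DMSO control wells (100%) and reported as percent viability.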

[2] = system: HBV viral production in AD38 cells; assay: Viral load production in AD38 cells by quantitative PCR of the HBV core sequence in supernatant; type: cell-based; settings: 10 μM compound, 6 days at 37° C., viral load in supernatant compared against DMSO control wells; for activity at 10 µM: Hepatitis B virus, 144 h, read-out: AD38 Viral Load (CpAM/DMSO %) at 10 μM
Summary of the method: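 AD38 cells seeded at 50,000/well, treated 6 days at 37° C with compound added as 10× solution in 10% DMSO. HBV core sequence in clarified supernatant quantified by TaqMan qPCR against known standards; viral load compared with DMSO control wells.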

SMILES | AD38 Viability Normalized Result (CPAM/DMSO %) at 10 μM [1] | activity at 10 µM [2] | AD38 Viral Load (CpAM/DMSO %) at 10 μM [2]
O=C(NCc1cncs1)c1ccc2c(c1)NC(=O)c1ccccc1N2Cc1ccccc1 [Compound 1510] | 82% | 62% | –
O=C(NCCc1cncs1)c1ccc2c(c1)NC(=O)c1ccccc1N2Cc1ccccc1 [Compound 1511] | 85% | 38% | –
CN(C)S(=O)(=O)c1ccc(CCNC(=O)c2ccc3c(c2)NC(=O)c2ccccc2N3Cc2ccccc2)cc1 [Compound 1512] | 99% | 27% | –
Cc1c(C(=O)NCc2cncs2)ccc2c1NC(=O)c1ccccc1S2 [Compound 1513] | 82% | 2% | –
Cc1c(C(=O)NCc2cnco2)ccc2c1NC(=O)c1ccccc1S2 [Compound 1514] | 84% | 13% | –
Cc1c(C(=O)NCc2cccnc2)ccc2c1NC(=O)c1ccccc1S2 [Compound 1515] | 82% | 2% | –
Cc1c(C(=O)Nc2ccncc2)ccc2c1NC(=O)c1ccccc1S2 [Compound 1516] | 82% | 30% | –
Cc1c(C(=O)NCCc2ccc(S(=O)(=O)N(C)C)cc2)ccc2c1NC(=O)c1ccccc1S2 [Compound 1517] | 78% | 2% | –
O=C1Nc2c(cc(F)c(C(=O)NCc3cncnc3)c2F)Sc2ccccc21 [Compound 1518] | 85% | 67% | –
O=C1Nc2c(cc(F)c(C(=O)NCCc3ccccn3)c2F)Sc2ccccc21 [Compound 1519] | 81% | 73% | –
CN1c2ccc(C(=O)NCc3cncnc3)cc2NC(=O)c2ccccc21 [Compound 1520] | 81% | 1% | –
CN1c2ccc(C(=O)NCCc3ccc(-c4ccccc4)cc3)cc2NC(=O)c2ccccc21 [Compound 1521] | 22% | 1% | –
CCN1c2ccc(C(=O)NCCc3ccccn3)cc2NC(=O)c2ccccc21 [Compound 1522] | 82% | 1% | –
CCN1c2ccc(C(=O)NCCc3cccnc3)cc2NC(=O)c2ccccc21 [Compound 1523] | 70% | 1% | –
CCN1c2ccc(C(=O)NCCc3ccc(-c4ccccc4)cc3)cc2NC(=O)c2ccccc21 [Compound 1524] | 18% | 2% | –
NC(=O)c1ccc2c(c1)NC(=O)c1ccccc1S2 [Compound 1525] | 85% | 78% | –
O=C1Nc2cc(S(=O)(=O)Nc3ccc(F)cc3F)ccc2Sc2ccccc21 [Compound 1526] | 92% | 57% | –
O=C(NCCc1cncs1)c1ccc2c(c1)NC(=O)c1ccccc1[S+]2[O-] (stereo not drawn) [Compound 1527] | 116% | 19% | –
O=C(NCCc1cncs1)c1ccc2c(c1)NC(=O)c1cccc(F)c1S2 [Compound 1528] | 85% | 4% | –
Cc1c(C(=O)NCCc2cncnc2)ccc2c1NC(=O)c1ccccc1S2 [Compound 1529] | 111% | 12% | –
O=C1Nc2c(cc(F)c(C(=O)NCc3cnco3)c2F)Sc2ccccc21 [Compound 1530] | 93% | 70% | –
O=C1Nc2c(cc(F)c(C(=O)NCCc3cccnc3)c2F)Sc2ccccc21 [Compound 1531] | 96% | 53% | –
CN1c2ccc(C(=O)NCCc3cncs3)cc2NC(=O)c2ccccc21 [Compound 1532] | 112% | 17% | –
CCN1c2ccc(C(=O)NCc3cncnc3)cc2NC(=O)c2ccccc21 [Compound 1533] | 105% | 2% | –

SMILES | AD38 Viability Normalized Result (CPAM/DMSO %) at 10 μM [1] | activity at 10 µM [2] | AD38 Viral Load (CpAM/DMSO %) at 10 μM [2]
CCN1c2ccc(C(=O)NCc3cncs3)cc2NC(=O)c2ccccc21 [Compound 1534] | 109% | 5% | –
O=C(NCc1cncs1)c1ccc2c(c1)NC(=O)c1ccccc1[SH]2O (stereo not drawn) [Compound 1535] | 85% | – | 108%
O=C(NCc1cncs1)c1ccc2c(c1)NC(=O)c1ccccc1[SH]2O (stereo not drawn) [Compound 1536] | 120% | – | 2%
O=C(Nc1nnco1)c1ccc2c(c1)NC(=O)c1cc(F)ccc1S2 [Compound 1537] | 98% | 36% | –
O=C(NCc1cncnc1)c1ccc2c(c1)NC(=O)c1c(F)cccc1S2 [Compound 1540] | 87% | 12% | –
O=C(NCc1cncs1)c1ccc2c(c1)NC(=O)c1c(F)cccc1S2 [Compound 1541] | 117% | 11% | –
O=C(NCc1cnco1)c1ccc2c(c1)NC(=O)c1c(F)cccc1S2 [Compound 1542] | 95% | 34% | –
O=C(NCCc1cncnc1)c1ccc2c(c1)NC(=O)c1c(F)cccc1S2 [Compound 1543] | 90% | 72% | –
O=C1Nc2cc(S(=O)(=O)Nc3ccc(Cl)cc3F)ccc2Sc2ccccc21 [Compound 1544] | 97% | 40% | –
O=C1Nc2c(cc(F)c(C(=O)NCc3cncs3)c2F)Sc2ccccc21 [Compound 1545] | 88% | 59% | –
O=C1Nc2c(cc(F)c(C(=O)NCc3cccnc3)c2F)Sc2ccccc21 [Compound 1546] | 89% | 65% | –
CN1c2ccc(C(=O)NCc3cnco3)cc2NC(=O)c2ccccc21 [Compound 1547] | 90% | 16% | –
CN1c2ccc(C(=O)NCCc3cncnc3)cc2NC(=O)c2ccccc21 [Compound 1548] | 85% | 28% | –
CN1c2ccc(C(=O)NCCc3cccnc3)cc2NC(=O)c2ccccc21 [Compound 1549] | 109% | 7% | –
CCN1c2ccc(C(=O)NCc3cccnc3)cc2NC(=O)c2ccccc21 [Compound 1550] | 87% | 1% | –
O=C(NCCc1nnc[nH]1)c1ccc2c(c1)NC(=O)c1ccccc1S2 [Compound 1551] | 91% | 51% | –
O=C(NC(Cc1nnc[nH]1)c1ccccc1)c1ccc2c(c1)NC(=O)c1ccccc1S2 (stereo not drawn) [Compound 1552] | 93% | 64% | –
CN1C(=O)c2ccccc2Sc2ccc(C(=O)NCc3cccnc3)cc21 [Compound 1553] | 93% | 86% | –
O=C(NCCc1cccnc1)c1ccc2c(c1)NC(=O)c1c(F)cccc1S2 [Compound 1555] | 81% | 36% | –
O=C1Nc2cc(S(=O)(=O)NCc3cncs3)ccc2Sc2ccccc21 [Compound 1556] | 86% | 67% | –
O=C(NCCc1cnco1)c1cc2c(cc1F)Sc1ccccc1C(=O)N2 [Compound 1557] | 86% | 54% | –
O=C(NCCc1cncs1)c1cc2c(cc1F)Sc1ccccc1C(=O)N2 [Compound 1558] | 88% | 51% | –
O=C(NCCc1cnco1)c1ccc2c(c1)NC(=O)c1ccccc1N2Cc1ccccc1 [Compound 1559] | 92% | 68% | –
Cc1c(C(=O)NCCc2cnco2)ccc2c1NC(=O)c1ccccc1S2 [Compound 1560] | 92% | 13% | –
